Data taken from ChEMBL document CHEMBL1201862, “PubChem BioAssay data set” (2004).
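Protocol summary: plate cells (96-well), add compound at 5 concentrations, incubate 48 h, interpolate endpoints linearly. The concentration for 50% growth inhibition is given as GI50.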 Activity calls are given as the source filed them. Rule as the data show it: active = GI50 up to about 1.1 µM and inactive = higher.

What was measured:
Test in all cases: growth of human tumour cells (NCI), 48 h
[1] = test system: HCT-116
[2] = test system: EKVX
[3] = test system: SF-539
[4] = test system: SK-MEL-28
[5] = test system: NCI-H23
[6] = test system: CAKI-1
[7] = test system: RXF 393
[8] = test system: SK-MEL-5
[9] = test system: SNB-19
[10] = test system: OVCAR-3
[11] = test system: 786-0
[12] = test system: ACHN
[13] = test system: UO-31
[14] = test system: T47D
[15] = test system: MDA-MB-231
[16] = test system: OVCAR-8
[17] = test system: M14
[18] = test system: MDA-MB-435
[19] = test system: SN12C
[20] = test system: SK-MEL-2
[21] = test system: UACC-257
[22] = test system: A498
[23] = test system: HT-29
[24] = test system: OVCAR-5
[25] = test system: K562
[26] = test system: OVCAR-4
[27] = test system: DU-145
[28] = test system: MCF7
[29] = test system: PC-3
[30] = test system: SW-620
[31] = test system: SNB-75
[32] = test system: A549
[33] = test system: NCI-H522
[34] = test system: NCI/ADR-RES
[35] = test system: SK-OV-3
[36] = test system: NCI-H460
[37] = test system: SF-268
[38] = test system: UACC-62
[39] = test system: COLO 205
[40] = test system: HOP-62
[41] = test system: KM12
[42] = test system: HCT-15
[43] = test system: TK-10
[44] = test system: U-251
[45] = test system: RPMI-8226
[46] = test system: MOLT-4
[47] = test system: SF-295
[48] = test system: MDA-N
[49] = test system: Hs-578T
[50] = test system: BT-549
[51] = test system: NCI-H226
[52] = test system: Malme-3M
[53] = test system: HOP-92
[54] = test system: HCC 2998
[55] = test system: IGROV-1
[56] = test system: SR
[57] = test system: LOX IMVI
[58] = test system: CCRF-CEM
[59] = test system: HL-60

CCCCCCc1nn2c(-c3ccc(C)cc3)nnc2s1
GI50 [1]: 49.2 µM (inactive)
GI50 [2]: 76.9 µM (inactive)
GI50 [3]: 81.8 µM (inactive)
GI50 [4]: > 100 µM (inactive)
GI50 [5]: > 100 µM (inactive)
GI50 [6]: > 100 µM (inactive)
GI50 [7]: 77.8 µM (inactive)
GI50 [8]: 77.1 µM (inactive)
GI50 [9]: > 100 µM (inactive)
GI50 [10]: > 100 µM (inactive)
GI50 [11]: > 100 µM (inactive)
GI50 [12]: > 100 µM (inactive)
GI50 [13]: > 100 µM (inactive)
GI50 [14]: 58.7 µM (inactive)
GI50 [15]: > 100 µM (inactive)
GI50 [16]: 68.9 µM (inactive)
GI50 [17]: > 100 µM (inactive)
GI50 [18]: > 100 µM (inactive)
GI50 [19]: > 100 µM (inactive)
GI50 [20]: > 100 µM (inactive)
GI50 [21]: 42.1 µM (inactive)
GI50 [22]: > 100 µM (inactive)
GI50 [23]: > 100 µM (inactive)
GI50 [24]: > 100 µM (inactive)
GI50 [25]: > 100 µM (inactive)
GI50 [26]: > 100 µM (inactive)
GI50 [27]: > 100 µM (inactive)
GI50 [28]: > 100 µM (inactive)
GI50 [29]: 56.1 µM (inactive)
GI50 [30]: > 100 µM (inactive)
GI50 [31]: > 100 µM (inactive)
GI50 [32]: > 100 µM (inactive)
GI50 [33]: 67.3 µM (inactive)
GI50 [34]: > 100 µM (inactive)
GI50 [35]: > 100 µM (inactive)
GI50 [36]: 80 µM (inactive)
GI50 [37]: > 100 µM (inactive)
GI50 [38]: > 100 µM (inactive)
GI50 [39]: > 100 µM (inactive)
GI50 [40]: > 100 µM (inactive)
GI50 [41]: > 100 µM (inactive)
GI50 [42]: > 100 µM
GI50 [43]: > 100 µM (inactive)
GI50 [44]: 32.6 µM (inactive)
GI50 [45]: > 100 µM (inactive)
GI50 [46]: 46.2 µM (inactive)
GI50 [47]: > 100 µM (inactive)
GI50 [48]: > 100 µM (inactive)
GI50 [49]: > 100 µM (inactive)
GI50 [50]: > 100 µM (inactive)

N#Cc1c(N)nc(-c2ccc(Cl)cc2)c2c1-c1ccccc1S(=O)(=O)CC2
GI50 [1]: > 100 µM (inactive)
GI50 [4]: > 100 µM (inactive)
GI50 [51]: > 100 µM (inactive)
GI50 [5]: 66.2 µM (inactive)
GI50 [6]: > 100 µM (inactive)
GI50 [8]: > 100 µM (inactive)
GI50 [52]: > 100 µM (inactive)
GI50 [9]: 29.1 µM (inactive)
GI50 [10]: > 100 µM (inactive)
GI50 [53]: > 100 µM (inactive)
GI50 [11]: 27.2 µM (inactive)
GI50 [12]: > 100 µM (inactive)
GI50 [13]: > 100 µM (inactive)
GI50 [14]: > 100 µM (inactive)
GI50 [15]: > 100 µM (inactive)
GI50 [54]: > 100 µM (inactive)
GI50 [16]: 34 µM (inactive)
GI50 [17]: > 100 µM (inactive)
GI50 [18]: > 100 µM (inactive)
GI50 [19]: 53.7 µM (inactive)
GI50 [20]: > 100 µM (inactive)
GI50 [21]: > 100 µM (inactive)
GI50 [22]: > 100 µM (inactive)
GI50 [23]: > 100 µM (inactive)
GI50 [24]: > 100 µM (inactive)
GI50 [25]: > 100 µM (inactive)
GI50 [26]: 23.2 µM (inactive)
GI50 [27]: 74.5 µM (inactive)
GI50 [55]: > 100 µM (inactive)
GI50 [29]: > 100 µM (inactive)
GI50 [30]: > 100 µM (inactive)
GI50 [31]: > 100 µM (inactive)
GI50 [32]: > 100 µM (inactive)
GI50 [33]: 31 µM (inactive)
GI50 [34]: 52.5 µM (inactive)
GI50 [36]: 45.1 µM (inactive)
GI50 [37]: 53.6 µM (inactive)
GI50 [38]: > 100 µM (inactive)
GI50 [39]: > 100 µM (inactive)
GI50 [40]: 35.7 µM (inactive)
GI50 [41]: > 100 µM (inactive)
GI50 [56]: 56.4 µM (inactive)
GI50 [42]: > 100 µM
GI50 [43]: > 100 µM (inactive)
GI50 [57]: > 100 µM (inactive)
GI50 [44]: 37.3 µM (inactive)
GI50 [45]: > 100 µM (inactive)
GI50 [48]: > 100 µM (inactive)
GI50 [49]: 46.1 µM (inactive)
GI50 [50]: 27.5 µM (inactive)

CC1=NNC(=O)C1C1C(=O)NN=C(c2c[nH]c3ccccc23)C1Br (stereo not given)
GI50 [1]: 35.7 µM (inactive)
GI50 [2]: 53.5 µM (inactive)
GI50 [3]: 50.2 µM (inactive)
GI50 [4]: 69 µM (inactive)
GI50 [58]: 25.7 µM (inactive)
GI50 [51]: 35 µM (inactive)
GI50 [5]: 74.5 µM (inactive)
GI50 [6]: 62.4 µM (inactive)
GI50 [7]: > 100 µM (inactive)
GI50 [8]: 37.8 µM (inactive)
GI50 [52]: 30.3 µM (inactive)
GI50 [9]: 37.8 µM (inactive)
GI50 [10]: 26.3 µM (inactive)
GI50 [53]: > 100 µM (inactive)
GI50 [11]: > 100 µM (inactive)
GI50 [12]: 42.3 µM (inactive)
GI50 [13]: 48 µM (inactive)
GI50 [14]: 42.1 µM (inactive)
GI50 [15]: > 100 µM (inactive)
GI50 [16]: 48.9 µM (inactive)
GI50 [17]: 23.2 µM (inactive)
GI50 [18]: 48.6 µM (inactive)
GI50 [19]: > 100 µM (inactive)
GI50 [20]: 21.1 µM (inactive)
GI50 [21]: > 100 µM (inactive)
GI50 [22]: > 100 µM (inactive)
GI50 [23]: 35.3 µM (inactive)
GI50 [24]: > 100 µM (inactive)
GI50 [25]: 31.7 µM (inactive)
GI50 [27]: > 100 µM (inactive)
GI50 [55]: 1.09 µM (active)
GI50 [29]: 25.5 µM (inactive)
GI50 [30]: 40.6 µM (inactive)
GI50 [31]: 13.1 µM (inactive)
GI50 [32]: 41.8 µM (inactive)
GI50 [33]: 16.4 µM (inactive)
GI50 [34]: 47.5 µM (inactive)
GI50 [35]: 57.4 µM (inactive)
GI50 [59]: 37.3 µM (inactive)
GI50 [36]: 38.7 µM (inactive)
GI50 [37]: 32.7 µM (inactive)
GI50 [38]: 83.4 µM (inactive)
GI50 [39]: 33.8 µM (inactive)
GI50 [40]: 40.1 µM (inactive)
GI50 [41]: 16.6 µM (inactive)
GI50 [42]: > 100 µM
GI50 [43]: > 100 µM (inactive)
GI50 [57]: 62.1 µM (inactive)
GI50 [44]: 38.3 µM (inactive)
GI50 [45]: 40.7 µM (inactive)
GI50 [46]: 25.4 µM (inactive)
GI50 [47]: 17.7 µM (inactive)
GI50 [48]: 59.8 µM (inactive)
GI50 [49]: 28 µM (inactive)
GI50 [50]: > 100 µM (inactive)
